The results in this text go back to PMC7070167, “Cell‐permeable high‐affinity tracers for Gq proteins provide structural insights, reveal distinct binding kinetics and identify small molecule inhibitors” (British Journal of Pharmacology, 2020).

By Kd is commonly meant the free concentration of one partner at which half of the binding sites on the other are occupied at equilibrium, for simple one-to-one binding. Low readings indicate tighter binding, high ones weaker binding.

For test [1], the target named is T1, Gq proteins (Homo sapiens, UniProt P50148).
T1 construct: Native cell membrane preparations from rat brain cortex and human blood platelets; host or cells: human platelets (intact suspension or membrane preparation)
T1 sequence (P50148 1-359): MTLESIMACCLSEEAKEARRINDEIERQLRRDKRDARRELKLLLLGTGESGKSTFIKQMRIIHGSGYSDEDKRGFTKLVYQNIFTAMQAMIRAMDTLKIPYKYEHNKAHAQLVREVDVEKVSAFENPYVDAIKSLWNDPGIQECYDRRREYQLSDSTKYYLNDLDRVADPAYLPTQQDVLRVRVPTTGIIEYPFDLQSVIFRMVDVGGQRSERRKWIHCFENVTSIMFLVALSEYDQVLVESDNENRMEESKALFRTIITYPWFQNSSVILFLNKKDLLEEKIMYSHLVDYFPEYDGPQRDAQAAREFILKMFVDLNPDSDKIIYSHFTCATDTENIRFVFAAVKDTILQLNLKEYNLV
Nature of the test: Competition binding at human platelet membrane preparations. As to conditions: for Ki / pseudo‐Bmax from pseudohomologous competition: human platelet membranes, 37°C. The method, then:
Apheresis‐purified human thrombocyte‐plasma concentrates were centrifuged (1,000 g at 4°C for 10 min), and the supernatant was decanted and centrifuged again (at 48,400 g, 4°C, for 60 min). The supernatant was kept and used as platelet‐poor plasma for control experiments; the formed pellet was resuspended in buffer 1 (50‐mM Tris–HCl, 5‐mM EDTA, and 150‐mM NaCl) and centrifuged at 48,400 g, 4°C for 60 min. The supernatant was discarded again and the pellet was resuspended in buffer 2 (5‐mM Tris–HCl and 5‐mM EDTA). The cell suspension was homogenized using an Ultra‐Turrax® (IKA Laborechnik, Staufen, Germany) for 1 min at a speed level of 4, subsequently transferred into cryovials, and stored at −80°C before use (the preparation is stable for several months). For radioligand binding assays, 50 μg of protein per vial was used, determined by the method of Bradford (Bio‐Rad Protein Assay).
(§1) The experiments were performed in 50‐mM Tris–HCl buffer, pH 7.4. The final assay volume of 200 μl contained 5 μl of test compound in DMSO, 50 μl of [^3H]PSB‐15900 or [^3H]PSB‐16254, respectively, in buffer, 5 nM of final concentration, and 100 μl of human platelet membrane preparation (50 μg of protein) or intact human platelets (7.5 × 10^6 cells/vial). Non‐specific binding was determined in the presence of 5‐μM FR. The incubation was started by the addition of membrane preparation and was performed at 37°C for 1 hr with gentle shaking. It was terminated by rapid vacuum filtration through GF/C glass‐fibre filters using a Brandel 24‐well harvester. The filters were rinsed three times with approximately 3 ml each of ice‐cold Tris–HCl buffer, 50 mM, pH 7.4 containing 0.1% Tween 20 and 0.1% BSA, to separate bound from free radioligand. The filters were punched out and transferred to scintillation vials. Luma Safe® scintillation cocktail (2.5 ml) was added, and after 6 hr of incubation, the samples were counted for 1 min each, using a liquid scintillation counter (counting efficiency 53%). Experiments in the presence of GTP were additionally performed after preincubation of the membrane preparation with GTP for 1 hr. pIC50 and pKi values were calculated using equations for one‐site competition as implemented in GraphPad Prism 6.01 (GraphPad Inc., La Jolla, CA, USA).

Test [2] concerns the target T1, Gq proteins. Nature of the test: Competition binding at intact human platelets. As to conditions: 37°C. The method, then:
Apheresis‐purified human thrombocyte‐plasma concentrates (PRP) were obtained from the blood bank, University of Bonn, in accordance with ethical guidelines, and directly used. For radioligand binding assays, they were diluted with 50‐mM Tris–HCl buffer, pH 7.4, to obtain a concentration of 7.5 × 10^6 platelets/50 μl (corresponding to a 1:10 dilution).
as §1

Test [3] deals with T1, Gq proteins. Briefly: High-throughput (96-well) competition binding assay at human platelet membranes. As to conditions: for Ki: versus [³H]PSB-15900 (5 nM), high-throughput 96-well format, 37°C. On the procedure: as §1
Competition binding experiments were performed as described above (for incubation conditions, washing steps, and buffers) but on 96‐well plates using a Brandel 96‐well plate harvester with GF/C Unifilters (Perkin‐Elmer). After harvesting, 50 μl per cavity of Ultima Gold scintillation cocktail (Perkin‐Elmer) was added, and counting was performed as described above.

Test [4] concerns Gq signalling via recombinantly expressed human P2Y1 receptor. Nature of the test: Calcium mobilization assay, ADP-induced (P2Y1 receptor) in 1321N1 astrocytoma cells. The test is classed as cell-based. As to conditions: Homo sapiens; versus ADP (EC80), P2Y1 receptor, 1321N1 astrocytoma cells; read-out: pIC50, inhibition of calcium mobilization (converted). On the procedure: The functional activity of YM, FR, and Ebselen as Gq protein inhibitors was determined by assessing their ability to antagonize ADP‐induced calcium mobilization in 1321N1 astrocytoma cells stably transfected with the human P2Y1 receptor, which is a Gq‐coupled receptor. In addition, the compounds' inhibitory effects on Carbachol‐induced calcium mobilization were studied in the same cell line, which endogenously express the Gq‐coupled muscarinic M3 ACh receptor. The assays were performed according to a previously described procedure (Rafehi et al., 2017) using a NOVOstar microplate reader (BMG Labtech, Offenburg, Germany).

Setting [5] is: pKi, versus [^3H]PSB‐15900 (5 nM).
The mark [6] stands for this setting: pKi, versus [^3H]PSB‐16254 (5 nM).
[7] abbreviates: versus [^3H]PSB‐15900 (5 nM), read-out: pKi (converted).
Setting [8] is: versus [³H]PSB-15900 (5 nM), read-out: Ki.

Each structure is given as a SMILES string. “And” between values parts separate entries of the source, which are not always exact repeats. Identical values can stand only once. *1 amine or outer side, *2 acyl side, *3 side chain or, on linkers, in order; H or OH if unused. Where a SMILES comes first, the peptide text is derived from it. Bridges are numbered along the chain shown (N, C = ends). [ ]: non-standard residue; d: D form. The star is where a group is joined. Leu(3R-O(AcLeu(3R-OH))) = CC(=O)N[C@H](C(=O)O[C@H](C(C)C)[C@H](N)C(=O)O)[C@H](O)C(C)C; Leu(3R-OH,Nα-propionyl) = CCC(=O)N[C@H](C(=O)*)[C@H](O)C(C)C; X1 = CC(C)[C@@H](O[*:3])[C@H](N[*:1])C(=O)[*:2]; NMeT = CN[C@H](C(=O)O)[C@@H](C)O; dPhLac = O=C(O)[C@H](O)Cc1ccccc1; NMeA = CN[C@@H](C)C(=O)O; NMeDha = C=C(NC)C(=O)O

`C=C1C(=O)N[C@@H](C)C(=O)N(C)[C@@H](C)C(=O)N[C@@H]([C@H](OC(=O)[C@@H](NC(=O)CC)[C@H](O)C(C)C)C(C)C)C(=O)N(C)[C@@H]([C@@H](C)OC)C(=O)O[C@H](C(C)C)[C@H](NC(C)=O)C(=O)O[C@H](Cc2ccccc2)C(=O)N1C` [FR, FR900359] (Ac-[X1][dPhLac][NMeDha]A[NMeA][X1](Leu(3R-OH,Nα-propionyl))[NMeT](Me); ester 1-C) showed a Kd at Gq proteins [1] of 4.1 ± 0.5 nM. Besides, the Ki on Gq proteins [1] (Ki, versus both radioligands) was 3 to 5 nM; at Gq proteins [1] (Ki, versus [³H]PSB-15900 (5 nM), standard 24-well format), 6.91 ± 2.25 nM; at Gq proteins [1] (setting [5]) it was 4.07 nM; at Gq proteins [1] (setting [6]) it was 2.51 nM; on Gq proteins [1] (pKi, versus [³H]PSB-15900 (5 nM), standard 24-well format) it was 6.76 nM; on Gq proteins [2] (setting [7]), 2.09 nM. In addition, the Ki on Gq proteins [2] (setting [8]) is 2.14 ± 0.87 nM; at Gq proteins [3] (read-out: Ki) it was 6.56 ± 1.92 nM; on Gq proteins [3] (read-out: pKi (converted)), 6.46 nM. In addition, the “pseudo‐Bmax from pseudohomologous competition” value at Gq proteins [1] (versus [^3H]PSB‐15900 (5 nM)) was 6.28 ± 1.12 pmol·mg^−1 of protein and 6.28 pmol·mg^−1 of protein. The “inhibition of radioligand binding (positive control)” value on Gq proteins [3] (1 μM, 96‐well plates) was “complete inhibition”. For the same compound, the IC50 in test [4] is 0.692 nM.
For `C=C1C(=O)N[C@@H](C)C(=O)N(C)[C@@H](C)C(=O)N[C@@H]([C@H](OC(=O)[C@@H](NC(C)=O)[C@H](O)C(C)C)C(C)C)C(=O)N(C)[C@@H]([C@@H](C)OC)C(=O)O[C@H](C)[C@H](NC(C)=O)C(=O)O[C@H](Cc2ccccc2)C(=O)N1C` [YM, YM‐254890] (Ac-T[dPhLac][NMeDha]A[NMeA][Leu(3R-O(AcLeu(3R-OH)))][NMeT](Me); ester 1-C), binding on Gq proteins [1] was characterised by a dissociation constant (Kd) of 6.29 ± 0.84 nM. For the same compound, the Ki on Gq proteins [1] (Ki, versus both radioligands) is 3 to 5 nM; at Gq proteins [1] (setting [5]) it was 5.01 nM; at Gq proteins [1] (setting [6]), 6.31 nM; at Gq proteins [2] (setting [7]), 2.09 nM; at Gq proteins [2] (setting [8]), 2.29 ± 0.38 nM. Also, at Gq proteins [1] (versus [^3H]PSB‐16254 (5 nM)), the “pseudo‐Bmax from pseudohomologous competition” value was 6.61 ± 0.60 pmol·mg^−1 of protein and 6.61 pmol·mg^−1 of protein. Also, in test [4], the IC50 is 0.955 nM.
